Here are results for 29 compounds from ChEMBL document CHEMBL5214970, “Discovery and optimization of orally bioavailable and potent plasma Kallikrein inhibitors bearing a quaternary carbon” (Bioorg Med Chem, 2022).

For series [1], the target named is T1, Plasma kallikrein (Homo sapiens, UniProt P03952). As to the kind of experiment: Inhibition of purified human plasma kallikrein using H-D-Pro-Phe-Arg-pNA.2HCl as substrate measured after 3 mins by microplate reader analysis.
Series [2] has as its target T1, Plasma kallikrein. Nature of the series: Inhibition of endogenous human plasma kallikrein using Z-Phe-Arg-AMC.HCl as substrate measured after 5 mins by microplate reader analysis.
The nature of series [3]: Cmax in Sprague-Dawley rat at 10 mg/kg,po. It counts as ADME, organism-based. On the set-up: dose 10 mg/kg, route po. Conditions: in vivo.
Series [4] in a line: Cmin in Sprague-Dawley rat at 10 mg/kg,po measured after 24 hrs. It counts as ADME, organism-based. Conditions: in vivo; for concentration at 24 h: Sprague-Dawley, read-out: Cmin.
Series [5] can be described thus: AUC (0 to 24hrs) in Sprague-Dawley rat at 10 mg/kg,po. It counts as ADME, organism-based. On the set-up: time < 24 hr, dose 10 mg/kg, route po. Conditions: in vivo; for AUC(0-t) at 24 h: Sprague-Dawley.

T1 sequence (P03952 20-390 limits assumed): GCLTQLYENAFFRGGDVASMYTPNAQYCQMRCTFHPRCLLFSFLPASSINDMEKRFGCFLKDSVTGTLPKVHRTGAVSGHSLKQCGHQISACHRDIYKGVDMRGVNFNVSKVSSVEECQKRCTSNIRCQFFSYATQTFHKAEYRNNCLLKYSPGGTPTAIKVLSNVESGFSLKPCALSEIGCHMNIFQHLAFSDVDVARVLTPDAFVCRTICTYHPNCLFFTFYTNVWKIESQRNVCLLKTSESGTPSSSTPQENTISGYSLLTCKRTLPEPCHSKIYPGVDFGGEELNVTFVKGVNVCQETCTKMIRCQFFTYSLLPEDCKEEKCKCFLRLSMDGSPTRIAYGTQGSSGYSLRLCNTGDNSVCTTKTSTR
T1 sequence (P03952 391-638 limits assumed): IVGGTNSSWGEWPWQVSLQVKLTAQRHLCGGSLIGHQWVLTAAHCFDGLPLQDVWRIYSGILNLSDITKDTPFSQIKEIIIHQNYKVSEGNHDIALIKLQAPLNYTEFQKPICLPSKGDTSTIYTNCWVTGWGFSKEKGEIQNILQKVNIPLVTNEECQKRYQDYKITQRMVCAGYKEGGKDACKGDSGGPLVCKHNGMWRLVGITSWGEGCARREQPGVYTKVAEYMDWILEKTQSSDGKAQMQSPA

Take `NCc1cccc(-n2nc(C(F)(F)F)cc2C(=O)Nc2cccc(C(O)(CCC3CC3)c3ccccn3)c2)c1` (stereo unspecified): the 50% inhibitory concentration (IC50) stood at 18.5 nM in series [1] and 104 nM in series [2].

For `NCc1cccc(-n2nc(C(F)(F)F)cc2C(=O)Nc2cc(C(N)(CCC3CC3)c3cccc(C(N)=O)c3)ccc2F)c1` (stereo unspecified), the IC50 in series [1] came out at 1.3 nM; in series [2], 6 nM. Further, the Cmax in series [3] (Sprague-Dawley, read-out: Cmax) was found to be 17 ng/mL. The concentration at 24 h in series [4] was 9.4 ng/mL. In addition, the AUC(0-t) at 24 h in series [5] stood at 306 ng·h/mL.

Turning to `NCc1cccc(-n2nc(C(F)(F)F)cc2C(=O)Nc2cc(C(N)(CCC3CC3)c3ccc(C(N)=O)cc3)ccc2F)c1` (stereo unspecified), the IC50 in series [1] turned out to be 0.9 nM; in series [2], 3.8 nM.

On to `N#Cc1cccc(C(N)(CCC2CC2)c2ccc(F)c(NC(=O)c3cc(C(F)(F)F)nn3-c3cccc(CN)c3)c2)n1` (stereo unspecified), for which the 50% inhibitory concentration (IC50) amounted to 2.9 nM in series [1] and 12 nM in series [2]. Also, the Cmax in series [3] (Sprague-Dawley, read-out: Cmax) was 676 ng/mL. The concentration at 24 h in series [4] was 53.3 ng/mL. Further, the AUC(0-t) at 24 h in series [5] was 2890 ng·h/mL.

With `NCc1cccc(-n2nc(C(F)(F)F)cc2C(=O)Nc2cccc(C(NCC3CC3)c3ccccc3)c2)c1` (stereo unspecified), the results for the IC50 in series [1] and in series [2] were 5.4 nM and 19.3 nM, respectively.

`NCc1cccc(-n2nc(C(F)(F)F)cc2C(=O)Nc2cccc(C(CCC3CC3)c3ccccc3)c2)c1` (stereo unspecified): the figures for the IC50 in series [1] and in series [2] were 10.4 nM and 2030 nM, respectively.

Consider `NCc1cccc(-n2nc(C(F)(F)F)cc2C(=O)Nc2cc(C(N)(CCC3CC3)c3ccc(C(N)=O)nc3)ccc2F)c1` (single isomer, unassigned; (+)), for which the results for the IC50 in series [1] and in series [2] were 2.3 nM and 1.7 nM, respectively. In series [3] (Sprague-Dawley, read-out: Cmax), the Cmax was 27 ng/mL. For the same compound, the AUC(0-t) at 24 h in series [5] came out at 134 ng·h/mL.

On to `NCc1cccc(-n2nc(C(F)(F)F)cc2C(=O)Nc2cccc(C(O)(CCC3CC3)c3ccccc3)c2)c1` (stereo in doubt; 6), for which the results for the IC50 in series [1] and in series [2] were 14 nM and 191 nM, respectively.

Consider `NCc1cccc(-n2nc(C(F)(F)F)cc2C(=O)Nc2cccc(C(O)(CCC3CC3)c3cccnc3)c2)c1` (stereo in doubt; 8), for which the IC50 in series [1] was 5.7 nM; in series [2], 23 nM.

As to `NCc1cccc(-n2nc(C(F)(F)F)cc2C(=O)Nc2cccc(C(O)(CCC3CC3)c3ccncc3)c2)c1` (stereo in doubt; 9), the values for the concentration for half-maximal inhibition (IC50) in series [1] and in series [2] were 4.7 nM and 17 nM, respectively.

For `NCc1cccc(-n2nc(C(F)(F)F)cc2C(=O)Nc2cccc(C(O)(CCC3CC3)c3ccccc3)c2)c1` (stereo in doubt; 10), the results for the half-inhibitory concentration (IC50) in series [1] and in series [2] were 1.2 nM and 56 nM, respectively.

With `NCc1cccc(-n2nc(C(F)(F)F)cc2C(=O)Nc2cccc(C(O)(CCC3CC3)c3ccccc3)c2)c1` (stereo in doubt; 11), the IC50 was determined as 62 nM in series [1] and 1190 nM in series [2].

For `NCc1cccc(-n2nc(C(F)(F)F)cc2C(=O)Nc2cccc(C(O)(CCC3CC3)c3cccnc3)c2)c1` (stereo in doubt; 18), the IC50 in series [1] was 1.9 nM; in series [2], 9 nM. Besides, the Cmax in series [3] (Sprague-Dawley, read-out: Cmax) came to 51 ng/mL. In addition, the AUC(0-t) at 24 h in series [5] is 128 ng·h/mL.

For the compound `NCc1cccc(-n2nc(C(F)(F)F)cc2C(=O)Nc2cccc(C(O)(CCC3CC3)c3cccnc3)c2)c1` (stereo in doubt; 19), the IC50 in series [1] amounted to 59 nM; in series [2] it was 264 nM.

Turning to `NCc1cccc(-n2nc(C(F)(F)F)cc2C(=O)Nc2cc(C(O)(CCC3CC3)c3cccnc3)ccc2F)c1` (stereo in doubt; 20), the Cmax in series [3] (Sprague-Dawley, read-out: Cmax) turned out to be 383 ng/mL. In addition, in series [4], the concentration at 24 h turned out to be 13 ng/mL. In series [5], this compound gave an AUC(0-t) at 24 h of 1440 ng·h/mL.

Turning to `NCc1cccc(-n2nc(C(F)(F)F)cc2C(=O)Nc2cc(C(O)(CCC3CC3)c3cccnc3)ccc2F)c1` (stereo in doubt; 21), the Cmax in series [3] stood at 224 ng/mL. In series [4] (po, 10 mg/kg, 24 h), the Cmin is 9 ng/mL. The exposure (AUC) in series [5] (24 h) was found to be 887 ng·h/mL.

`NCc1cccc(-n2nc(C(F)(F)F)cc2C(=O)Nc2cccc(C(O)(CCC3CC3)c3ccncc3)c2)c1` (stereo in doubt; 23): the IC50 is 1.3 nM in series [1] and 7.6 nM in series [2]. For the same compound, in series [3] (Sprague-Dawley, read-out: Cmax), the Cmax stood at 7 ng/mL. In series [5], this compound registered an AUC(0-t) at 24 h of 11 ng·h/mL.

As for `NCc1cccc(-n2nc(C(F)(F)F)cc2C(=O)Nc2cccc(C(O)(CCC3CC3)c3ccncc3)c2)c1` (stereo in doubt; 24), the IC50 in series [1] was determined as 59 nM; in series [2] it was 178 nM.

As to `NCc1cccc(-n2nc(C(F)(F)F)cc2C(=O)Nc2cc(C(O)(CCC3CC3)c3ccncc3)ccc2F)c1` (stereo in doubt; 25), the results for the IC50 in series [1] and in series [2] were 1.1 nM and 7.7 nM, respectively. For the same compound, the Cmax in series [3] (Sprague-Dawley, read-out: Cmax) stood at 42 ng/mL. For the same compound, in series [4], the concentration at 24 h came out at 2 ng/mL. The AUC(0-t) at 24 h in series [5] worked out at 95 ng·h/mL.

For the compound `NCc1cccc(-n2nc(C(F)(F)F)cc2C(=O)Nc2cc(C(O)(CCC3CC3)c3ccncc3)ccc2F)c1` (stereo in doubt; 26), the IC50 in series [1] was 180 nM; in series [2], 165 nM.

Consider `NCc1cccc(-n2nc(C(F)(F)F)cc2C(=O)Nc2cc(C(N)(CCC3CC3)c3ccccn3)ccc2F)c1` (stereo in doubt; 29), for which, in series [3] (Sprague-Dawley, read-out: Cmax), the Cmax came to 157 ng/mL. Besides, the concentration at 24 h in series [4] is 15.1 ng/mL. In series [5], this compound showed an AUC(0-t) at 24 h of 960 ng·h/mL.

For the compound `NCc1cccc(-n2nc(C(F)(F)F)cc2C(=O)Nc2cc(C(N)(CCC3CC3)c3cccnc3)ccc2F)c1` (stereo in doubt; 31), the Cmax in series [3] (Sprague-Dawley, read-out: Cmax) came to 190 ng/mL. Further, the concentration at 24 h in series [4] turned out to be 9.62 ng/mL. Also, the AUC(0-t) at 24 h in series [5] amounted to 888 ng·h/mL.

For the compound `NCc1cccc(-n2nc(C(F)(F)F)cc2C(=O)Nc2cc(C(N)(CCC3CC3)c3ccncc3)ccc2F)c1` (stereo in doubt; 33), the results for the IC50 in series [1] and in series [2] were 1.5 nM and 3 nM, respectively. Also, in series [3] (Sprague-Dawley, read-out: Cmax), the Cmax worked out at 93 ng/mL. Moreover, in series [4], the concentration at 24 h was determined as 22.9 ng/mL. Besides, in series [5], the AUC(0-t) at 24 h came to 825 ng·h/mL.

As for `NCc1cccc(-n2nc(C(F)(F)F)cc2C(=O)Nc2cc(C(N)(CCC3CC3)c3ccncc3)ccc2F)c1` (stereo in doubt; 34), the IC50 came out at 118 nM in series [1] and 76 nM in series [2].

As to `Cc1cc(C(N)(CCC2CC2)c2ccc(F)c(NC(=O)c3cc(C(F)(F)F)nn3-c3cccc(CN)c3)c2)ccn1` (stereo in doubt; 35), the results for the IC50 in series [1] and in series [2] were 1.2 nM and 3 nM, respectively. In series [3] (Sprague-Dawley, read-out: Cmax), the peak concentration (Cmax) turned out to be 390 ng/mL. Also, the concentration at 24 h in series [4] worked out at 24.5 ng/mL. Further, the AUC(0-t) at 24 h in series [5] was determined as 1560 ng·h/mL.

The compound `Cc1cc(C(N)(CCC2CC2)c2ccc(F)c(NC(=O)c3cc(C(F)(F)F)nn3-c3cccc(CN)c3)c2)ccn1` (stereo in doubt; 36) displayed an IC50 in series [1] of 18.4 nM. That is a double-digit nanomolar value.

On to `N#Cc1cccc(C(N)(CCC2CC2)c2ccc(F)c(NC(=O)c3cc(C(F)(F)F)nn3-c3cccc(CN)c3)c2)c1` (stereo in doubt; 37), for which the half-inhibitory concentration (IC50) in series [1] is 1.3 nM; in series [2], 3.2 nM. For the same compound, the Cmax in series [3] (Sprague-Dawley, read-out: Cmax) is 429 ng/mL. The concentration at 24 h in series [4] is 56.5 ng/mL. In series [5], this compound registered an AUC(0-t) at 24 h of 3330 ng·h/mL.

On to `N#Cc1cccc(C(N)(CCC2CC2)c2ccc(F)c(NC(=O)c3cc(C(F)(F)F)nn3-c3cccc(CN)c3)c2)c1` (stereo in doubt; 38), for which the concentration for half-maximal inhibition (IC50) in series [1] came out at 234 nM; in series [2], 382 nM.

Turning to `N#Cc1ccc(C(N)(CCC2CC2)c2ccc(F)c(NC(=O)c3cc(C(F)(F)F)nn3-c3cccc(CN)c3)c2)cc1` (stereo in doubt; 41), the Cmax in series [3] (Sprague-Dawley, read-out: Cmax) amounted to 303 ng/mL. The concentration at 24 h in series [4] was 40.1 ng/mL. Besides, in series [5], the AUC(0-t) at 24 h worked out at 2290 ng·h/mL.
